In brackets after ≈: the same amount, converted by molar mass. Numbered stars: 1 amine (or outer) side, 2 acyl side, 3 side chain; on linkers, the order of the positions; unused ones are H or OH. Bridge positions count the residues as written; N and C are the ends. Square brackets hold non-standard residues; d marks the D form. Peptide text beside a SMILES is read from it. * marks the point of attachment. Morpholine(3S-CO) = O=C(O)[C@@H]1COCCN1; Phe(3-Me) = Cc1cccc(C[C@H](N)C(=O)O)c1; Pro(4S-Me) = C[C@@H]1CN[C@H](C(=O)O)C1; Pro(4R-Me) = C[C@H]1CN[C@H](C(=O)O)C1; Hyp = O=C(O)[C@@H]1C[C@@H](O)CN1; NH(4-Cl-phenyl) = Clc1ccc(N*)cc1; aThr = C[C@H](O)[C@H](N)C(=O)O; Pip = O=C(O)[C@@H]1CCCCN1; CO = O=C([*:1])[*:2]
Legend:
S. aureus ΔClpP = test: Minimal inhibitory concentration, microbroth dilution; format: cell-based, Staphylococcus aureus; settings: MIC; ClpP inactivated
In short: (§1)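 Compound was diluted twofold in the appropriate broth. Bacterial suspension (approx. 10^5 cfu/mL) was then added in equal volume, giving a maximum test concentration of 200 μM. After aerobic overnight incubation at 37 °C, wells were inspected visually for growth.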

S. aureus ATCC 29213 = test: as above; format: cell-based; settings: Staphylococcus aureus, ATCC29213, read-out: Minimal Inhibitory Concentrations (μM) S. aureus ATCC 29213, MIC
In short: as §1

E. faecails = test: as above; format: cell-based; settings: Enterococcus faecalis, read-out: Minimal Inhibitory Concentrations (μM) E. faecails, MIC
In short: as §1

S. aureus USA 300 = test: as above; format: cell-based; settings: Staphylococcus aureus, USA300, read-out: Minimal Inhibitory Concentrations (μM) S. aureus USA 300, MIC
In short: as §1

MRSA NRS70 = test: as above; format: cell-based; settings: Staphylococcus aureus, read-out: Minimal Inhibitory Concentrations (μM) MRSA NRS70, MIC
In short: as §1

S. aureus ClpP (Sa-ClpP) = biological target: T1, S. aureus ClpP (Sa-ClpP) (Staphylococcus aureus, UniProt Q2G036); test: Casein-BODIPY digestion assay (ClpP activation); format: biochemical
T1 construct: made in house; host or cells: E. coli BL21 (DE3)
Procedure: The compounds were assayed in a casein digestion assay in order to determine their effect on ClpP activation. Briefly, the assay was carried out using S. aureus ClpP (“Sa-ClpP”) overexpressed in E. coli BL21 (DE3) and purified in a two-step process. Purity of the protein was assessed through SDS PAGE analysis. EC50 evaluations were conducted in triplicate in a 20 μl assay format using a method adapted from Maurizi et al. (Methods Enzymol. (1994) 244:314-331). Each well contained 10 μM saClpP, 25 μg/ml BODIPY FL casein (Invitrogen Corporation, San Diego, Calif.), and test compound in concentrations ranging between 0-1000 μM in assay buffer (50 mM Tris pH 8, 200 mM KCl, and 1 mM TCEP). The reaction took place at 37° C. Fluorescence (excitation 485 nm; emission 528 nm) was measured in five minute intervals over a 45 min period using a BioTek HT fluorescence microplate reader (BioTek Instruments, Inc., Winooski, Vt.). Velocity of each reaction was calculated and data was fit to a dose response curve using GraphPad Prism® software (GraphPad Software, Inc., La Jolla, Calif.). EC50 is the effective concentration of compound which causes 50% activation of S. aureus ClpP in the foregoing BODIPY FL casein assay.
Alternatively, the assay was carried out using EnzCheck Protease Assay (Molecular Probes, Catalog # E6638). The assay was performed in black 384 well, flat bottom, low volume plates (Greiner Bio-One, Monroe, N.C., catalog #784076). 10 μL of Tris.HCl buffer, pH 8.0 with 0.01% Triton X-100 was pipetted into each well using a Well-Mate (Thermo Scientific, Waltham, Mass.). 0.4 μL test compounds or controls (2% DMSO v/v) were added to each well using a Biomek FX liquid handling robot (Beckman Coulter, Indianapolis, Ind.). After addition of test compounds and controls, 10 μL of master mix containing 2 μM Sa-ClpP and 2 μM substrate (Bodipy-FL labeled casein) in Tris.HCl buffer, pH 8.0 with 0.01% (v/v) Triton X-100, was pipetted into each well. All assays were performed in triplicate, under linear velocity conditions. Increase in fluorescent signal following activation of Sa-ClpP by test compounds and controls was measured over time period of 30 mins using filters with excitation at 485±15 nm and emission at 520±25 nm on a PHERAstar FS Multilabel reader (BMG, Cary, N.C.). Instrument gains and enzyme linear velocity conditions were determined and validated using ADEP4, a known Sa-ClpP activator. Data analysis was done by measuring rate of casein degradation over time (slopes). Computed degradation rates (slopes) were normalized to positive (ADEP4) or negative (DMSO) controls. Using nonlinear regression curve fitting EC50 values and % activation were determined using the equation “log [agonist] vs. Response-variable slope (four parameters)-symmetrical” in the program Prism 6 (GraphPad Software, La Jolla, Calif. USA, www.graphpad.com).

T1 sequence (Q2G036 whole entry): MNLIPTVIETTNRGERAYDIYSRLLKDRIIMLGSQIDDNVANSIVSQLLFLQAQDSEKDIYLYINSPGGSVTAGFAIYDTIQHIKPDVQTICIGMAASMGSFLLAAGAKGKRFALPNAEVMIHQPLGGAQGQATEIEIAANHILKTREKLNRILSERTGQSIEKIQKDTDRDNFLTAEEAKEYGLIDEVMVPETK

Compound	Minimal Inhibitory Concentrations (μM) S. aureus ΔClpP (S. aureus ΔClpP) [µM]	MIC (S. aureus ATCC 29213) [µM]	MIC (E. faecails) [µM]	MIC (S. aureus USA 300) [µM]	MIC (MRSA NRS70) [µM]	EC50 (S. aureus ClpP (Sa-ClpP)) [nM]
Cc1cccc(C[C@H](NC(=O)Nc2ccc(Cl)cc2)C(=O)N[C@H]2COC(=O)[C@@H]3CCCN3C(=O)[C@H](C)NC(=O)[C@@H]3CCCCN3C(=O)[C@@H]3C[C@@H](O)CN3C2=O)c1 [Compound 56, (S)-2-(3-(4-CHLOROPHENYL)UREIDO)-N-((6S,8AS,14AS,16R,20S,23AS)-16-HYDROXY-6-METHYL-5,8,14,19,23-PENTAOXOOCTADECAHYDRO-1H,5H,14H,19H-PYRIDO[2,1-I]DIPYRROLO[2,1-C:2′,1′-L][1]OXA[4,7,10,13]TETRAAZACYCLOHEXADECIN-20-YL)-3-(M-TOLYL)PROPANAMIDE]	>20	5 (≈ 3.97 µg/mL)	2.5 (≈ 1.99 µg/mL)	2.5 (≈ 1.99 µg/mL)	10 (≈ 7.94 µg/mL)	1330 ± 2500
Cc1cccc(C[C@H](NC(=O)Nc2ccc(Cl)cc2)C(=O)N[C@@H]2C(=O)N3C[C@H](O)C[C@H]3C(=O)N3CCOC[C@H]3C(=O)N[C@@H](C)C(=O)N3C[C@H](C)C[C@H]3C(=O)O[C@H]2C)c1 [Compound 73, (S)-2-(3-(4-CHLOROPHENYL)UREIDO)-N-((6AS,8R,12S,13S,15AS,17R,21S,23AS)-8-HYDROXY-13,17,21-TRIMETHYL-6,11,15,20,23-PENTAOXOOCTADECAHYDRO-6H,11H,15H-[1,4]OXAZINO[3,4-I]DIPYRROLO[2,1-C:2′,1′-L][1]OXA[4,7,10,13]TETRAAZACYCLOHEXADECIN-12-YL)-3-(M-TOLYL)PROPANAMIDE] ({NH(4-Cl-phenyl)-CO}-[Phe(3-Me)][aThr][Hyp][Morpholine(3S-CO)]A[Pro(4R-Me)]; ester 2-C)	>20	2.5 (≈ 2.06 µg/mL)	0.625 (≈ 0.515 µg/mL)	0.625 (≈ 0.515 µg/mL)	2.5 (≈ 2.06 µg/mL)	250 ± 100
Cc1cccc(C[C@H](NC(=O)Nc2ccc(Cl)cc2)C(=O)N[C@@H]2C(=O)N3CCC[C@H]3C(=O)N3CCCC[C@H]3C(=O)N[C@@H](C)C(=O)N3C[C@H](C)C[C@H]3C(=O)O[C@H]2C)c1 [Compound 63, (S)-2-(3-(4-CHLOROPHENYL)UREIDO)-3-(M-TOLYL)-N-((2R,6S,8AS,14AS,20S,21S,23AS)-2,6,21-TRIMETHYL-5,8,14,19,23-PENTAOXOOCTADECAHYDRO-1H,5H,14H,19H-PYRIDO[2,1-I]DIPYRROLO[2,1-C:2′,1′-L][1]OXA[4,7,10,13]TETRAAZACYCLOHEXADECIN-20-YL)PROPANAMIDE] ({NH(4-Cl-phenyl)-CO}-[Phe(3-Me)][aThr]P[Pip]A[Pro(4R-Me)]; ester 2-C)	>20	0.625 (≈ 0.504 µg/mL)	0.313 (≈ 0.252 µg/mL)	0.313 (≈ 0.252 µg/mL)	0.313 (≈ 0.252 µg/mL)	400 ± 200
Cc1cccc(C[C@H](NC(=O)Nc2ccc(Cl)cc2)C(=O)N[C@@H]2C(=O)N3C[C@H](O)C[C@H]3C(=O)N3CCCC[C@H]3C(=O)N[C@@H](C)C(=O)N3C[C@@H](C)C[C@H]3C(=O)O[C@H]2C)c1 [Compound 66, (S)-2-(3-(4-CHLOROPHENYL)UREIDO)-N-((2S,6S,8AS,14AS,16R,20S,21S,23AS)-16-HYDROXY-2,6,21-TRIMETHYL-5,8,14,19,23-PENTAOXOOCTADECAHYDRO-1H,5H,14H,19H-PYRIDO[2,1-I]DIPYRROLO[2,1-C:2′,1′-L][1]OXA[4,7,10,13]TETRAAZACYCLOHEXADECIN-20-YL)-3-(M-TOLYL)PROPANAMIDE] ({NH(4-Cl-phenyl)-CO}-[Phe(3-Me)][aThr][Hyp][Pip]A[Pro(4S-Me)]; ester 2-C)	>20	0.625 (≈ 0.514 µg/mL)	1.25 (≈ 1.03 µg/mL)	0.313 (≈ 0.257 µg/mL)	1.25 (≈ 1.03 µg/mL)	160 ± 100

— patent US10570179B2, “Substituted urea depsipeptide analogs as activators of the CLPP endopeptidase” (priority 2016, dated 2020)
